Measurements taken from patent US9980943B2, “Methods of treating muscular dystrophy” (BOARD OF REGENTS OF THE NEVADA SYSTEM OF HIGHER EDUCATION, …, priority 2013, dated 2018).

How the values were obtained:
Format in all cases: cell-based, mouse
[1] = system: α7 integrin (LacZ reporter in α7βgal+/− myoblasts); test: Myoblast α7+/LacZ integrin FDG assay (Burkin assay in myoblasts, 96-well); details: α7+/LacZ myoblasts, 96-well
[2] = system: α7 integrin (LacZ reporter in α7+/LacZ myotubes); test: Myotube α7 integrin FDG assay (Burkin assay in myotubes, 96-well); details: myotubes
[3] = system: β-galactosidase in CMV-LacZ C2C12 myoblasts; test: CMV-LacZ secondary screen in C2C12 myoblasts (β-Gal stabilizing assay); details: CMV-LacZ C2C12 myoblasts
Procedure, shortened: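 First, C2C12 myoblasts were transfected with a linearized CMV-LACZ vector and clonal lines selected by FDG β-gal assay. Then cells were exposed to compounds at 0.5, 1, 5, 10, 20 and 40 μM in 96-well format, two replicates each, and β-gal measured.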

[4] = system: β-galactosidase in CMV-LacZ C2C12 myotubes; test: CMV-LacZ secondary screen in C2C12 myotubes (β-Gal stabilizing assay); details: C2C12 CMV-LacZ myotubes, fold relative to DMSO
Procedure, shortened: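 β-Gal level was the read-out, measured in a clonal C2C12 line expressing LacZ from a CMV promoter. Dose-response curves used six concentrations, 0.5 μM up to 40 μM, with duplicate points.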

Compound | Burkin Assay in Myoblasts, signal relative to DMSO ([1]; 0.5 uM) | Burkin Assay in Myoblasts, signal relative to DMSO ([1]; 1 uM) | Burkin Assay in Myoblasts, signal relative to DMSO ([1]; 5 uM) | Burkin Assay in Myoblasts, signal relative to DMSO ([1]; 10 uM) | Burkin Assay in Myoblasts, signal relative to DMSO ([1]; 20 uM) | Burkin Assay in Myoblasts, signal relative to DMSO ([1]; 40 uM) | Burkin Assay in Myotubes, α7 integrin LacZ reporter signal relative to DMSO ([2]; 0.5 uM) | Burkin Assay in Myotubes, α7 integrin LacZ reporter signal relative to DMSO ([2]; 1 uM) | Burkin Assay in Myotubes, α7 integrin LacZ reporter signal relative to DMSO ([2]; 5 uM) | Burkin Assay in Myotubes, α7 integrin LacZ reporter signal relative to DMSO ([2]; 10 uM) | Burkin Assay in Myotubes, α7 integrin LacZ reporter signal relative to DMSO ([2]; 20 uM) | Burkin Assay in Myotubes, α7 integrin LacZ reporter signal relative to DMSO ([2]; 40 uM) | CMV-LACZ in Myoblasts (β-galactosidase activity relative to DMSO) ([3]; 0.5 uM) | CMV-LACZ in Myoblasts (β-galactosidase activity relative to DMSO) ([3]; 1 uM) | CMV-LACZ in Myoblasts (β-galactosidase activity relative to DMSO) ([3]; 5 uM) | CMV-LACZ in Myoblasts (β-galactosidase activity relative to DMSO) ([3]; 10 uM) | CMV-LACZ in Myoblasts (β-galactosidase activity relative to DMSO) ([3]; 20 uM) | CMV-LACZ in Myoblasts (β-galactosidase activity relative to DMSO) ([3]; 40 uM) | CMV-LACZ in Myotubes, signal relative to DMSO ([4]; 0.5 uM) | CMV-LACZ in Myotubes, signal relative to DMSO ([4]; 1 uM) | also measured
CCOC(=O)c1sc(=N)n(-c2ccc(OC)cc2)c1C [MLS000090135-01] | 1.227 | 1.166 | 0.988 | 1.018 | 0.6029 | 0.3956 | 1.042 | 0.9598 | 0.8747 | 0.9078 | 0.8015 | 0.8215 | 1.0896 | 0.9421 | 0.9731 | 0.9296 | 0.6017 | 0.3653 | 1.0155 | 1.1036 | CMV-LACZ in Myotubes, signal relative to DMSO ([4]; 5 uM): 0.7503; CMV-LACZ in Myotubes, signal relative to DMSO ([4]; 10 uM): 1.0114; CMV-LACZ in Myotubes, signal relative to DMSO ([4]; 20 uM): 1.1100; CMV-LACZ in Myotubes, signal relative to DMSO ([4]; 40 uM): 1.1840
Cc1cccc(Cn2cnc3c(nnn3Cc3ccc(Cl)cc3)c2=O)c1 [MLS000092785-01] | 0.9544 | 1.035 | 1.1703 | 0.9343 | 0.7833 | 0.6509 | 1.027 | 0.9662 | 1.02 | 0.8586 | 0.8293 | 0.8225 | 0.8600 | 1.1653 | 0.9882 | 0.7351 | 1.1004 | 0.3235 | 0.9105 | 1.0143 | CMV-LACZ in Myotubes, signal relative to DMSO ([4]; 5 uM): 1.0185; CMV-LACZ in Myotubes, signal relative to DMSO ([4]; 10 uM): 1.0738; CMV-LACZ in Myotubes, signal relative to DMSO ([4]; 20 uM): 1.0400; CMV-LACZ in Myotubes, signal relative to DMSO ([4]; 40 uM): 1.0500
N#Cc1ccc(Sc2nc3ccccc3[nH]2)cc1C#N [MLS000110418-01] | 1.3095 | 1.079 | 1.249 | 1.12 | 1.004 | 0.8889 | 1.073 | 1.0975 | 1.017 | 0.943 | 0.9939 | 0.8855 | 0.8871 | 0.9989 | 1.0913 | 0.9455 | 0.8926 | 0.7141 | 1.0333 | 0.9000 | CMV-LACZ in Myotubes, signal relative to DMSO ([4]; 5 uM): 0.9617; CMV-LACZ in Myotubes, signal relative to DMSO ([4]; 10 uM): 0.9599; CMV-LACZ in Myotubes, signal relative to DMSO ([4]; 20 uM): 1.0459; CMV-LACZ in Myotubes, signal relative to DMSO ([4]; 40 uM): 1.3647
